Measurements from patent US10189809B2, “SGC stimulators” (Ironwood Pharmaceuticals, Inc., priority 2010, dated 2019).
Where two headings read alike, the source gives them in different places.

Legend:
[1] = target: T1, soluble guanylate cyclase (sGC) (Homo sapiens (Human), UniProt Q02108+Q02153); experiment: sGC-HEK-cGMP assay run in the absence of SNP (HEK WC assay); assay type: cell-based; conditions: compound at 30 μM, absence of SNP
Experimental: (§1) Human embryonic kidney cells (HEK293), endogenously expressing soluble guanylate cyclase (sGC), were used to evaluate the activity of test compounds. Compounds stimulating the sGC receptor should cause an increase in the intracellular concentration of cGMP. HEK 293 cells were seeded in Dulbecco's Modification of Eagle's Medium supplemented with fetal bovine serum (10% final) and L-glutamine (2 mM final) in a 200 μL volume at a density of 1×10^5 cells/well in a poly-D-lysine coated 96 well flat bottom plate and grown overnight at 37° C. Medium was aspirated and cells were washed with 1× Hank's Buffered Saline Salt Solution (200 μL). Cells were then incubated for 15 minutes at 37° C. with 0.5 mM 3-isobutyl-1-methylxanthine (200 μL). Test article was then added to the assay mixture (2 μL) and incubated at 37° C. for 10 minutes. After the 10 minute incubation, the assay mixture was aspirated and 0.1M HCl (200 μL) was added to the cells. The plate was incubated at 4° C. for 30 minutes in the 0.1M HCl to stop the reaction and lysed the cells. The plates were then centrifuged at 1,200 g for 5 minutes at room temperature. Supernatants were collected and transferred to a new flat bottom 96 well plate for analysis. Vehicle controls were carried out using DMSO (1%). A known sGC stimulator, BAY 41-2272, was used as the positive control. Samples were diluted with an equal volume of 1 M Ammonium Acetate (pH 7) to neutralize samples for better chromatography. A 2× cGMP standard curve was prepared in 0.1 M HCl and then diluted with an equal volume of 1 M Ammonium Acetate, with the following final concentrations in nM: 1024, 512, 256, 128, 64, 32, 16, 8, 4, 2, 1. cGMP concentrations were determined from each sample using the LC/MS conditions (Table 2 below) and calculated standard curve. EC50 values were calculated from concentration-response curves generated with GraphPad Prism Software.

[2] = target: T1, soluble guanylate cyclase (sGC); experiment: sGC-HEK-cGMP assay run with SNP incubation (HEK WC assay); assay type: cell-based; conditions: for HEK WC Assay (fold increase at 30 μM in the presence of 10 μM SNP): compound at 30 μM; for EC50: in the presence of 10 uM SNP
Experimental: as §1, with “article and sodium nitroprusside were” for “article was”, “(2 μL each)” for “(2 μL)”, “(1%). […]” for “(1%). A known sGC stimulator, BAY 41-2272, was used as the positive control.”, “chromatography. […]” for “chromatography. A 2× cGMP standard curve was prepared in 0.1 M HCl and then diluted with an equal volume of 1 M Ammonium Acetate, with the following final concentrations in nM: 1024, 512, 256, 128, 64, 32, 16, 8, 4, 2, 1. cGMP concentrations were determined from each sample using the LC/MS conditions (Table 2 below) and calculated standard curve.”

[3] = test system: Thoracic aortic rings; experiment: Alternative thoracic aortic rings assay (Example 19b; resting tension as 100% inhibition); design: species or system rat; conditions: Rattus norvegicus; for inhibition at 1 µM: read-out: Percent Relaxation at 1 μM; for inhibition at 3 µM: read-out: Percent Relaxation at 3 μM; for inhibition at 10 µM: read-out: Percent Relaxation at 10 μM; for EC50: read-out: Aortic Ring EC50
Experimental: Thoracic aortic rings were dissected from anesthetized (isoflurane) male Sprague-Dawley rats weighing 275-299 g. Tissues were immediately transferred to ice-cold Krebs-Henseleit solution, which had been aerated with 95% O2 and 5% CO2 for 30 minutes. Following removal of connective tissue, aortic sections were cut into 4 rings (˜2 mm each) and suspended on 2 L-shaped hooks, with one hook fixed at the bottom of the tissue bath (Schuler Organ Bath, Harvard Apparatus) and the other connected to a force transducer (F30 Force Transducer, Harvard Apparatus). Baths contained Krebs Henseleit solution (10 mL) heated to 37° C. and aerated with 95% O2 and 5% CO2. Rings were brought to an initial tension of 0.3-0.5 g and gradually raised to a resting tension of 1.0 g over 60 minutes. Rings were rinsed with Krebs Henseleit solution (heated to 37° C. and aerated with 95% O2 and 5% CO2) at 15 minute intervals until a stable baseline was obtained. Rings were considered to be stable after a resting tension of 1.0 g was maintained (for approximately 10 minutes) without need for adjustment. Rings were then contracted with 100 ng/mL phenylephrine by adding 100 uL of a 10 μg/mL phenylephrine stock solution. Tissues achieving a stable contraction were then treated in a cumulative, dose dependent manner with test compounds prepared in dimethylsulfoxide (DMSO). In some cases, tissues were rinsed three times over a 5 minute period with Krebs-Heinseleit's solution (heated to 37° C. and aerated with 95% O2 and 5% CO2), allowed to stabilize at baseline, and then used for characterization of other test articles or DMSO effects. All data were collected using the HSE-ACAD software provided by Harvard Apparatus. […] EC50 values were calculated from concentration-response curves generated with GraphPad Prism Software.

[4] = target: Human soluble guanylate cyclase enzyme (hsGC) (Homo sapiens (Human), UniProt Q02108+Q02153); experiment: Purified human sGC enzyme activity assay; assay type: biochemical; conditions: for sGC Enzyme (specific activity at 10 μM) / sGC Enzyme (fold increase at 10 μM without SNP): 10 μM compound; for sGC Enzyme (specific activity at 30 μM) / sGC Enzyme (fold increase at 30 μM without SNP): 30 μM compound
Human soluble guanylate cyclase enzyme (hsGC), sequence (Q02153 whole entry): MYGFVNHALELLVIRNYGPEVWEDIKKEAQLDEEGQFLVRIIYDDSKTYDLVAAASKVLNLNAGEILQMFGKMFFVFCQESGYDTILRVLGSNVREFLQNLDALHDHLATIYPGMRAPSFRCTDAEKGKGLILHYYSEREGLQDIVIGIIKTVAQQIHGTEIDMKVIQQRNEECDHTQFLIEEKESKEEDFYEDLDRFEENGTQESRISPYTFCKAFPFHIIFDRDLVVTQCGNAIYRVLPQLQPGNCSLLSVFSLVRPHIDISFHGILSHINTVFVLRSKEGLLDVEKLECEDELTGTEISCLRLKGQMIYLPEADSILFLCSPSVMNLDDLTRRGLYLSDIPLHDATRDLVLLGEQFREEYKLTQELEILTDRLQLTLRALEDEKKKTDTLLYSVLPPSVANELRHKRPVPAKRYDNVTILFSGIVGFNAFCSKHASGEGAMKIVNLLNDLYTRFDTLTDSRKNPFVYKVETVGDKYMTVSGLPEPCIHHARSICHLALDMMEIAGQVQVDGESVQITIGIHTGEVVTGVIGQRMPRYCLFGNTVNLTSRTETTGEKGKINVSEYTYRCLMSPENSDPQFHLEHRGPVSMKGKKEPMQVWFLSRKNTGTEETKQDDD
Human soluble guanylate cyclase enzyme (hsGC), sequence (Q02108 whole entry): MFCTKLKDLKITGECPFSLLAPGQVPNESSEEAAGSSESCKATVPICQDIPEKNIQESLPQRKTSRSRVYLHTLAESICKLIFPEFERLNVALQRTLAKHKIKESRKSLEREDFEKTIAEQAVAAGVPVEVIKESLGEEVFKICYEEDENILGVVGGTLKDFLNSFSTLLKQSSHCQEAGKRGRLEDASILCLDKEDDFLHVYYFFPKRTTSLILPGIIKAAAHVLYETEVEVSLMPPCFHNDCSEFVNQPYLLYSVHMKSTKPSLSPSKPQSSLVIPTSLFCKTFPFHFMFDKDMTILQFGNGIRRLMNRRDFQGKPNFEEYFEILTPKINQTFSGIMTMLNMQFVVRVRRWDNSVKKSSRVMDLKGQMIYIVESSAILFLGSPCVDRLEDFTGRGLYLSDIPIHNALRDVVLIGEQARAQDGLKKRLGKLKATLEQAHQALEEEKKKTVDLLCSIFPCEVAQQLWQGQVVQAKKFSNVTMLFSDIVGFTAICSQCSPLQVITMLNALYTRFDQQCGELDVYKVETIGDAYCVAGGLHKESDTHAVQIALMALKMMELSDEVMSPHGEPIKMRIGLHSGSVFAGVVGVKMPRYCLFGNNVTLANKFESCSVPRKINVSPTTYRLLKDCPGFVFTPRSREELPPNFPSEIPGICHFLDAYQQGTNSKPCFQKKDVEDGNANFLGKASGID
Experimental: Human soluble guanylate cyclase enzyme (hsGC) obtained from Enzo Inc. (P/N: ALX-201-177) was used to evaluate the activity of test compounds. The assay reactions contained 0.1 M Tris (pH 8.0), 0.5 mg/mL BSA (pH 8.0), 2 mM DTT, 2 mM MgCl2, 300 μM GTP, 1 mM 3-isobutyl-1-methylxanthine (IBMX) and 5 ng human soluble guanylate cyclase enzyme. Test compounds in DMSO were then added (2 μL, 10 or 30 μM final concentration) and incubated (200 μL, 96-well plate format) at 37° C. for 30 minutes. The controls were carried out using 2 μL DMSO. After the 30 minute incubation, the reaction was stopped with the addition of 200 μL of cold methanol. The plate was then centrifuged at 3,200 rpm for 10 minutes at room temperature. Supernatants (200 μL) were collected and transferred to a new 96 well plate for analysis.
An 8 point cGMP (Sigma-Aldrich P/N: G6129) standard curve was prepared in assay buffer ranging from 0.156-20 μM. Samples for the cGMP standard curve were then diluted with an equal volume of methanol resulting in final cGMP concentrations of 0.078-10 μM.
The cGMP standard curve was generated using GraphPad Prism Software.
Calculations: Specific Activity was determined by the amount of cGMP formed (nmoles) per mg of sGC per min. Enzyme “fold-change” was calculated by dividing Specific Activity for test compounds by Specific Activity of DMSO controls.

[5] = read-out: HEK WC Assay (% Emax at 1 μM with 10 uM SNP)
[6] = read-out: HEK WC Assay (% Emax at 10 μM with 10 uM SNP)
[7] = read-out: HEK WC Assay (% Emax at 30 μM with 10 uM SNP)
[8] = read-out: HEK WC Assay (% Emax at 10 uM/with 10 uM SNP)
[9] = read-out: HEK WC Assay (% Emax at 30 uM/with 10 uM SNP)
[10] = read-out: HEK WC Assay (% Emax at 10 μM/with 10 uM SNP)
[11] = read-out: HEK WC Assay (% Emax at 30 μM/with 10 uM SNP)

T1 sequence (Q02153 whole entry): as the sequence (Q02153 whole entry) above
T1 sequence (Q02108 whole entry): as the sequence (Q02108 whole entry) above

## CN(C(=O)C(C)(C)C)c1cnc(-c2cc(-c3ccon3)n(Cc3ccccc3F)n2)nc1N [Compound I-234]
[1]
  HEK WC Assay (fold increase at 30 μM in the absence of SNP): C (C = 2 to <5 fold increase)
[2]
  HEK WC Assay (fold increase at 30 μM in the presence of 10 μM SNP): E (E = 10 to <20 fold increase)
  EC50: < 20 µM
[2]; [5]
  Emax: 20 to 40%
[2]; [6]
  Emax: 40 to 60%
[2]; [7]
  Emax: 40 to 60%

## COc1oc(-c2cc(-c3ncccn3)nn2Cc2ccccc2F)nc1C [Compound I-291]
[1]
  HEK WC Assay (fold increase at 30 μM in the absence of SNP): B (B = 1 to <2 fold increase)
[2]
  HEK WC Assay (fold increase at 30 μM in the presence of 10 μM SNP): B (B = 1 to <2 fold increase)
[2]; [6]
  Emax: 0 to 10%
[2]; [7]
  Emax: 0 to 10%

## Fc1ccccc1Cn1nc(-c2ncccn2)cc1-c1ccno1 [Compound I-305]
[3]; Table 10B
  inhibition at 1 µM: 40 to 60%
  inhibition at 3 µM: 80 to 100%
  inhibition at 10 µM: 100 to 120%
  EC50: < 2000 nM

## Fc1ccc(-c2cc(-c3ccccn3)nn2Cc2ccccc2F)cc1 [Compound I-12]
[4]
  sGC Enzyme (specific activity at 10 μM): C (C = 100 to <200)
  sGC Enzyme (fold increase at 10 μM without SNP): A (A = no increase to <2 fold increase)
  sGC Enzyme (specific activity at 30 μM): C (C = 100 to <200)
  sGC Enzyme (fold increase at 30 μM without SNP): A (A = no increase to <2 fold increase)
[2]; [8]
  Emax at 10 µM: 0 to 10%
[2]; [9]
  Emax at 30 µM: 0 to 10%

## Oc1nc(-c2cc(-c3ccon3)n(Cc3ccccc3F)n2)ncc1F [Compound I-161]
[3]; Table 10B
  inhibition at 1 µM: 80 to 100%
  inhibition at 3 µM: 100 to 120%
  EC50: < 2000 nM

## CCOC(=O)c1cnc(-c2cc(-c3ccon3)n(Cc3ccccc3F)n2)nc1O [Compound I-138]
[3]; Table 10A
  inhibition at 1 µM: 20 to 40%
  inhibition at 3 µM: 40 to 60%
  EC50: 2000 to 4000 nM
[2]; [10]
  Emax at 10 µM: 40 to 60%
[2]; [11]
  Emax at 30 µM: 40 to 60%

## Nc1nc(-c2cc(-c3ccon3)n(Cc3ccccc3F)n2)ncc1NC(=O)C1CC1 [Compound I-144]
[3]; Table 10B
  inhibition at 1 µM: 80 to 100%
  inhibition at 3 µM: 100 to 120%
  EC50: < 2000 nM
[2]
  EC50: < 20 µM
[2]; [6]
  Emax: 100 to 120%
[2]; [7]
  Emax: 60 to 80%

## Nc1nc(-c2cc(-c3ccon3)n(Cc3ccccc3F)n2)ncc1F [Compound I-109]
[3]; Table 10A
  inhibition at 1 µM: 80 to 100%
  inhibition at 3 µM: 60 to 80%
  inhibition at 10 µM: 100 to 120%
  EC50: < 2000 nM

## CCOC(=O)c1cnc(-c2cc(-c3ccon3)n(Cc3ccccc3F)n2)nc1Cl [Compound I-140]
[3]; Table 10A
  inhibition at 1 µM: 20 to 40%
  inhibition at 3 µM: 60 to 80%
  inhibition at 10 µM: 80 to 100%
  EC50: < 2000 nM
[2]; [10]
  Emax at 10 µM: 60 to 80%
[2]; [11]
  Emax at 30 µM: 40 to 60%

## Cc1cnc(-c2cc(-c3ccon3)n(Cc3ccccc3F)n2)nc1N [Compound I-297]
[3]; Table 10B
  inhibition at 1 µM: 20 to 40%
  inhibition at 3 µM: 60 to 80%
  EC50: < 2000 nM
[2]
  EC50: < 20 µM
[2]; [6]
  Emax: 40 to 60%
[2]; [7]
  Emax: 80 to 100%

## Nc1nc(-c2cc(-c3ccon3)n(Cc3ccccc3F)n2)ncc1NC(=O)c1nccs1 [Compound I-189]
[3]; Table 10B
  inhibition at 1 µM: 80 to 100%
  inhibition at 3 µM: 80 to 100%
  EC50: < 2000 nM
[2]
  EC50: < 20 µM
[2]; [5]
  Emax: 60 to 80%
[2]; [6]
  Emax: 60 to 80%
[2]; [7]
  Emax: 60 to 80%

## Cc1cc(-c2cc(-c3ncccn3)nn2Cc2ccccc2F)c(C)s1 [Compound I-14]
[4]
  sGC Enzyme (specific activity at 10 μM): C (C = 100 to <200)
  sGC Enzyme (fold increase at 10 μM without SNP): A (A = no increase to <2 fold increase)
  sGC Enzyme (specific activity at 30 μM): C (C = 100 to <200)
  sGC Enzyme (fold increase at 30 μM without SNP): A (A = no increase to <2 fold increase)
[2]; [8]
  Emax at 10 µM: 0 to 10%
[2]; [9]
  Emax at 30 µM: 0 to 10%

## CC1(C(=O)Nc2cnc(-c3cc(-c4ccon4)n(Cc4ccccc4F)n3)nc2N)CC1(F)F (centres unmarked) [Compound I-245]
[3]; Table 10B
  inhibition at 1 µM: 80 to 100%
  inhibition at 3 µM: 100 to 120%
  inhibition at 10 µM: 100 to 120%
  EC50: < 2000 nM
[2]
  EC50: < 20 µM
[2]; [5]
  Emax: 80 to 100%
[2]; [6]
  Emax: 100 to 120%
[2]; [7]
  Emax: 100 to 120%
